In EP0255256A2, “Antibiotics produced by actinomadura parvosata” (SMITHKLINE BECKMAN CORPORATION, priority 1986, dated 1988):
Values after ≈ are worked out from the molar mass of the structure shown.

Key:
[1] = system: Staph. aureus 209P vancomycin resistant mutant; test: MBC, standard assay procedures; type: cell-based; details: Staphylococcus aureus, read-out: MBC in μg/ml
Experimental: (§1) The in vitro minimal inhibitory concentration (MIC) and the in vitro minimal bactericidal concentration (MBC) of the AAJ-271 aglycones, pseudo-aglycone and vancomycin were determined for a number of microorganisms using the standard microtiter assay procedures.

Staph. aureus 209P [2] = test: MBC, standard assay procedures; type: cell-based; details: Staphylococcus aureus; Staph. aureus 209P; Table VIII; read-out: MBC
Experimental: as §1

Staph. epidermidis 2261 [3] = test: MBC, standard assay procedures; type: cell-based; details: Staphylococcus epidermidis; Staph. epidermidis 2261; Table VIII; read-out: MBC
Experimental: as §1

Staph. aureus 910 [4] = test: MBC, standard assay procedures; type: cell-based; details: Staphylococcus aureus; Staph. aureus 910; Table VIII; read-out: MBC
Experimental: as §1

Staph. epidermidis 2256 [5] = test: MBC, standard assay procedures; type: cell-based; details: Staphylococcus epidermidis; Staph. epidermidis 2256; Table VIII; read-out: MBC
Experimental: as §1

[6] = system: Staph. saprophyticus 2657; test: MBC, standard assay procedures; type: cell-based; details: Staphylococcus saprophyticus; Staph. saprophyticus 2657; Table VIII; read-out: MBC
Experimental: as §1

[7] = system: Strep. pyogenes (Group A); test: MBC, standard assay procedures; type: cell-based; details: Streptococcus pyogenes; Strep. pyogenes (Group A); Table VIII; read-out: MBC
Experimental: as §1

Staph. epidermidis 2588 [8] = test: MBC, standard assay procedures; type: cell-based; details: Staphylococcus epidermidis; Staph. epidermidis 2588; Table VIII; read-out: MBC
Experimental: as §1

Staph. aureus 2630 = test: Mouse protection assay; type: in vivo; details: Staphylococcus aureus, 2630, 1 h
Staph. aureus HH127 [9] = test: MIC, standard microtiter assay; type: cell-based; details: Staphylococcus aureus; Staph. aureus HH127; Table VIII; read-out: MIC
Experimental: (§2) The in vitro minimal inhibitory concentration (MIC) of the AAJ-271 complex and its factors, and vancomycin were determined for a number of microorganisms using the standard microtite'r assay procedures. The results are shown in the following tables, each of which represents a different production run of the complex.
as §1

Staph. aureus 209P [10] = test: MIC, standard microtiter assay; type: cell-based; details: Staphylococcus aureus; Staph. aureus 209P; Table VIII; read-out: MIC
Experimental: as §2, §1

Staph. aureus 910 [11] = test: MIC, standard microtiter assay; type: cell-based; details: Staphylococcus aureus; Staph. aureus 910; Table VIII; read-out: MIC
Experimental: as §2, §1

Staph. epidermidis 2256 [12] = test: MIC, standard microtiter assay; type: cell-based; details: Staphylococcus epidermidis; Staph. epidermidis 2256; Table VIII; read-out: MIC
Experimental: as §2, §1

Staph. epidermidis 2265 [13] = test: MIC, standard microtiter assay; type: cell-based; details: Staphylococcus epidermidis; Staph. epidermidis 2265; Table VIII; read-out: MIC
Experimental: as §2, §1

[14] = system: Staph. saprophyticus 2657; test: MIC, standard microtiter assay; type: cell-based; details: Staphylococcus saprophyticus; Staph. saprophyticus 2657; Table VIII; read-out: MIC
Experimental: as §2, §1

[15] = system: Strep. pyogenes (Group A); test: MIC, standard microtiter assay; type: cell-based; details: Streptococcus pyogenes; Strep. pyogenes (Group A); Table VIII; read-out: MIC
Experimental: as §2, §1

Staph. epidermidis 2588 [16] = test: MIC, standard microtiter assay; type: cell-based; details: Staphylococcus epidermidis; Staph. epidermidis 2588; Table VIII; read-out: MIC
Experimental: as §2, §1

Strep. faecalis 34358 [17] = test: MIC, standard microtiter assay; type: cell-based; details: Enterococcus faecalis; Strep. faecalis 34358; Table VIII; read-out: MIC
Experimental: as §2, §1

Staph. aureus 2620 [18] = test: MIC, standard microtiter assay; type: cell-based; details: Staphylococcus aureus; Staph. aureus 2620; Table VIII; read-out: MIC
Experimental: as §2, §1

Strep. faecalis 657 [19] = test: MIC, standard microtiter assay; type: cell-based; details: Enterococcus faecalis; Strep. faecalis 657; Table VIII; read-out: MIC
Experimental: as §2, §1

Staph. haemolyticus 651 [20] = test: MIC, standard microtiter assay; type: cell-based; details: Staphylococcus haemolyticus; Staph. haemolyticus 651; Table VIII; read-out: MIC
Experimental: as §2, §1

Staph. aureus 675 [21] = test: MIC, standard microtiter assay; type: cell-based; details: Staphylococcus aureus; Staph. aureus 675; Table VIII; read-out: MIC
Experimental: as §2, §1

Staph. epidermidis 2479 [22] = test: MIC, standard microtiter assay; type: cell-based; details: Staphylococcus epidermidis; Staph. epidermidis 2479; Table VIII; read-out: MIC
Experimental: as §2, §1

[23] = system: Staph. aureus 209P vancomycin resistant mutant; test: MIC, standard microtiter assay; type: cell-based; details: Staphylococcus aureus, read-out: MIC in μg/ml
Experimental: as §1

Staph. epidermidis 2261 [24] = test: MIC, standard microtiter assay; type: cell-based; details: Staphylococcus epidermidis; Staph. epidermidis 2261; Table VIII; read-out: MIC
Experimental: as §1

Staph. aureus HH127 [25] = test: MBC, standard assay procedures; type: cell-based; details: Staphylococcus aureus; Staph. aureus HH127; Table VIII; read-out: MBC
Experimental: (§3) The in vitro minimal bactericidal concentration (MBC) of the AAJ-271 C, C2 and C3 factors and vancomycin were determined for a number of microorganisms using standard assay procedures.
as §1

Staph. epidermidis 2265 [26] = test: MBC, standard assay procedures; type: cell-based; details: Staphylococcus epidermidis; Staph. epidermidis 2265; Table VIII; read-out: MBC
Experimental: as §3, §1

Strep. faecalis 34358 [27] = test: MBC, standard assay procedures; type: cell-based; details: Enterococcus faecalis; Strep. faecalis 34358; Table VIII; read-out: MBC
Experimental: as §3, §1

Staph. aureus 2620 [28] = test: MBC, standard assay procedures; type: cell-based; details: Staphylococcus aureus; Staph. aureus 2620; Table VIII; read-out: MBC
Experimental: as §3, §1

Strep. faecalis 657 [29] = test: MBC, standard assay procedures; type: cell-based; details: Enterococcus faecalis; Strep. faecalis 657; Table VIII; read-out: MBC
Experimental: as §3, §1

Staph. haemolyticus 651 [30] = test: MBC, standard assay procedures; type: cell-based; details: Staphylococcus haemolyticus; Staph. haemolyticus 651; Table VIII; read-out: MBC
Experimental: as §3, §1

Staph. aureus 675 [31] = test: MBC, standard assay procedures; type: cell-based; details: Staphylococcus aureus; Staph. aureus 675; Table VIII; read-out: MBC
Experimental: as §3, §1

Staph. epidermidis 2479 [32] = test: MBC, standard assay procedures; type: cell-based; details: Staphylococcus epidermidis; Staph. epidermidis 2479; Table VIII; read-out: MBC
Experimental: as §3, §1

Staph. aureus HH127 [33] = test: Mouse protection assay; type: in vivo; details: Staphylococcus aureus, 1 h; mice; intraperitoneal s.c. infection; Staph. aureus HH127, Dosage as No. of LD50's = 4; treatment one hour post infection; Table X; read-out: ED50
Strep. faecalis 34358 [34] = test: Mouse protection assay; type: in vivo; details: Enterococcus faecalis, 1 h; mice; intraperitoneal s.c. infection; Strep. faecalis 34358, Dosage as No. of LD50's = 3.5; treatment one hour post infection; Table X; read-out: ED50

| Compound | MBC [1] | MBC (Staph. aureus 209P [2]) | MBC (Staph. epidermidis 2261 [3]) | MBC (Staph. aureus 910 [4]) | MBC (Staph. epidermidis 2256 [5]) | MBC [6] | MBC [7] | MBC (Staph. epidermidis 2588 [8]) | MIC (Staph. aureus HH127 [9]) | MIC (Staph. aureus 209P [10]) | MIC (Staph. aureus 910 [11]) | MIC (Staph. epidermidis 2256 [12]) | MIC (Staph. epidermidis 2265 [13]) | MIC [14] | MIC [15] | MIC (Staph. epidermidis 2588 [16]) | MIC (Strep. faecalis 34358 [17]) | MIC (Staph. aureus 2620 [18]) | MIC (Strep. faecalis 657 [19]) | MIC (Staph. haemolyticus 651 [20]) | further results |
| --- | --- | --- | --- | --- | --- | --- | --- | --- | --- | --- | --- | --- | --- | --- | --- | --- | --- | --- | --- | --- | --- |
| CNC1C(=O)NC2Cc3ccc(cc3)Oc3cc4cc(c3O)Oc3ccc(cc3Cl)C(O)C3NC(=O)C(NC(=O)C4NC(=O)C(NC2=O)c2cc(cc(O)c2Cl)Oc2cc1ccc2O)c1ccc(O)c(c1)-c1c(O)cc(O)cc1C(C(=O)O)NC3=O (stereo not shown) [Aglycone 1] | 25 µg/mL (≈ 20.6 µM) | 3.1 µg/mL (≈ 2.56 µM) | 1.6 µg/mL (≈ 1.32 µM) | 3.1 µg/mL (≈ 2.56 µM) | 1.6 µg/mL (≈ 1.32 µM) | 1.6 µg/mL (≈ 1.32 µM) | 0.8 µg/mL (≈ 0.66 µM) | 0.8 µg/mL (≈ 0.66 µM) | 0.4 µg/mL (≈ 0.33 µM) | 0.4 µg/mL (≈ 0.33 µM) | 0.4 µg/mL (≈ 0.33 µM) | 1.6 µg/mL (≈ 1.32 µM) | 0.4 µg/mL (≈ 0.33 µM) | 0.8 µg/mL (≈ 0.66 µM) | 0.8 µg/mL (≈ 0.66 µM) | 0.8 µg/mL (≈ 0.66 µM) | 1.6 µg/mL (≈ 1.32 µM) | 0.4 µg/mL (≈ 0.33 µM) | 1.6 µg/mL (≈ 1.32 µM) | 3.1 µg/mL (≈ 2.56 µM) | ED50 (Staph. aureus 2630): 6.4 mg/kg; MIC (Staph. aureus 675 [21]): 0.8 µg/mL (≈ 0.66 µM); MIC (Staph. epidermidis 2479 [22]): 0.8 µg/mL (≈ 0.66 µM); MIC [23]: 25 µg/mL (≈ 20.6 µM); MIC (Staph. epidermidis 2261 [24]): 0.8 µg/mL (≈ 0.66 µM); MBC (Staph. aureus HH127 [25]): 1.6 µg/mL (≈ 1.32 µM); MBC (Staph. epidermidis 2265 [26]): 0.4 µg/mL (≈ 0.33 µM); MBC (Strep. faecalis 34358 [27]): 100 µg/mL (≈ 82.4 µM); MBC (Staph. aureus 2620 [28]): 3.1 µg/mL (≈ 2.56 µM); MBC (Strep. faecalis 657 [29]): 100 µg/mL (≈ 82.4 µM); MBC (Staph. haemolyticus 651 [30]): 6.3 µg/mL (≈ 5.19 µM); MBC (Staph. aureus 675 [31]): 6.3 µg/mL (≈ 5.19 µM); MBC (Staph. epidermidis 2479 [32]): 6.3 µg/mL (≈ 5.19 µM); ED50 (Staph. aureus HH127 [33]): 0.88 mg/kg; ED50 (Strep. faecalis 34358 [34]): 5 mg/kg |
| CN(C)C1C(=O)NC2Cc3ccc(cc3)Oc3cc4cc(c3O)Oc3ccc(cc3Cl)C(O)C3NC(=O)C(NC(=O)C4NC(=O)C(NC2=O)c2cc(cc(O)c2Cl)Oc2cc1ccc2O)c1ccc(O)c(c1)-c1c(O)cc(O)cc1C(C(=O)O)NC3=O (stereo not shown) [Aglycone 2] | 25 µg/mL (≈ 20.4 µM) | 0.4 µg/mL (≈ 0.326 µM) | 1.6 µg/mL (≈ 1.3 µM) | 0.4 µg/mL (≈ 0.326 µM) | 0.8 µg/mL (≈ 0.652 µM) | 0.8 µg/mL (≈ 0.652 µM) | 0.8 µg/mL (≈ 0.652 µM) | 3.1 µg/mL (≈ 2.53 µM) | 0.4 µg/mL (≈ 0.326 µM) | 0.4 µg/mL (≈ 0.326 µM) | 0.4 µg/mL (≈ 0.326 µM) | 0.8 µg/mL (≈ 0.652 µM) | 0.8 µg/mL (≈ 0.652 µM) | 0.8 µg/mL (≈ 0.652 µM) | 1.6 µg/mL (≈ 1.3 µM) | 1.6 µg/mL (≈ 1.3 µM) | 1.6 µg/mL (≈ 1.3 µM) | 0.8 µg/mL (≈ 0.652 µM) | 1.6 µg/mL (≈ 1.3 µM) | 6.3 µg/mL (≈ 5.13 µM) | MIC (Staph. aureus 675 [21]): 0.4 µg/mL (≈ 0.326 µM); MIC (Staph. epidermidis 2479 [22]): 0.8 µg/mL (≈ 0.652 µM); MIC [23]: 25 µg/mL (≈ 20.4 µM); MIC (Staph. epidermidis 2261 [24]): 1.6 µg/mL (≈ 1.3 µM); MBC (Staph. aureus HH127 [25]): 0.4 µg/mL (≈ 0.326 µM); MBC (Staph. epidermidis 2265 [26]): 0.8 µg/mL (≈ 0.652 µM); MBC (Strep. faecalis 34358 [27]): > 50 µg/mL; MBC (Staph. aureus 2620 [28]): 0.8 µg/mL (≈ 0.652 µM); MBC (Strep. faecalis 657 [29]): 6.3 µg/mL (≈ 5.13 µM); MBC (Staph. haemolyticus 651 [30]): 6.3 µg/mL (≈ 5.13 µM); MBC (Staph. aureus 675 [31]): 0.4 µg/mL (≈ 0.326 µM); MBC (Staph. epidermidis 2479 [32]): 0.8 µg/mL (≈ 0.652 µM) |
